Measured values: PubChem BioAssay (NCI)
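1) Cells in 96-well plates. 2) Compound, 48 h, 5 concentrations. 3) Linear interpolation between surrounding doses. 4) Unreached endpoint = highest concentration. At the GI50, growth is halved. TGI marks complete inhibition of growth.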

Legend:
Test in all cases: NCI tumour cell line growth inhibition, 48 h
DU-145 prostate = test system: DU-145 prostate
SK-OV-3 ovarian = test system: SK-OV-3 ovarian
MDA-MB-231 breast = test system: MDA-MB-231 breast
HOP-92 NSCLC = test system: HOP-92 NSCLC
T-47D breast = test system: T-47D breast
NCI-H522 lung = test system: NCI-H522 lung
UACC-62 melanoma = test system: UACC-62 melanoma
SNB-19 CNS = test system: SNB-19 CNS
NCI-H226 lung = test system: NCI-H226 lung
RPMI-8226 leukemia = test system: RPMI-8226 leukemia
SR leukemia = test system: SR leukemia
MOLT-4 leukemia = test system: MOLT-4 leukemia
ACHN renal = test system: ACHN renal
SK-MEL-5 melanoma = test system: SK-MEL-5 melanoma
HL-60(TB) leukemia = test system: HL-60(TB) leukemia
HCC-2998 colon = test system: HCC-2998 colon
A498 renal = test system: A498 renal
LOX IMVI melanoma = test system: LOX IMVI melanoma
COLO 205 colon = test system: COLO 205 colon
MALME-3M melanoma = test system: MALME-3M melanoma
SW-620 colon = test system: SW-620 colon
TK-10 renal = test system: TK-10 renal
K-562 leukemia = test system: K-562 leukemia
KM12 colon = test system: KM12 colon
UO-31 renal = test system: UO-31 renal
U251 CNS = test system: U251 CNS
SN12C renal = test system: SN12C renal
OVCAR-4 ovarian = test system: OVCAR-4 ovarian
BT-549 breast = test system: BT-549 breast
MCF7 breast = test system: MCF7 breast
SK-MEL-2 melanoma = test system: SK-MEL-2 melanoma
NCI-H23 lung = test system: NCI-H23 lung
SF-268 CNS = test system: SF-268 CNS
SF-295 CNS = test system: SF-295 CNS
HS 578T breast = test system: HS 578T breast
OVCAR-8 ovarian = test system: OVCAR-8 ovarian
HCT-116 colon = test system: HCT-116 colon
SF-539 CNS = test system: SF-539 CNS
SK-MEL-28 melanoma = test system: SK-MEL-28 melanoma
HCT-15 colon = test system: HCT-15 colon
UACC-257 melanoma = test system: UACC-257 melanoma
PC-3 prostate = test system: PC-3 prostate
HT29 colon = test system: HT29 colon
A549 NSCLC = test system: A549 NSCLC
MDA-MB-435 = test system: MDA-MB-435
786-0 renal = test system: 786-0 renal
NCI-H460 lung = test system: NCI-H460 lung
OVCAR-5 ovarian = test system: OVCAR-5 ovarian
HOP-62 NSCLC = test system: HOP-62 NSCLC
RXF 393 renal = test system: RXF 393 renal
M14 melanoma = test system: M14 melanoma
NCI/ADR-RES ovarian = test system: NCI/ADR-RES ovarian
CCRF-CEM leukemia = test system: CCRF-CEM leukemia
IGROV1 ovarian = test system: IGROV1 ovarian
OVCAR-3 ovarian = test system: OVCAR-3 ovarian

`COc1cc(-c2cc(/C=C/C(=O)c3ccc(N)cc3)[nH]n2)cc(OC)c1OC` showed a GI50 (DU-145 prostate) of 1650 nM, a TGI (DU-145 prostate) of 4050 nM and a GI50 (SK-OV-3 ovarian) of 2990 nM. It also gave a TGI (SK-OV-3 ovarian) of 8320 nM, a GI50 (MDA-MB-231 breast) of 2060 nM and a TGI (MDA-MB-231 breast) of 12200 nM. It also gave a GI50 (HOP-92 NSCLC) of 3680 nM, a TGI (HOP-92 NSCLC) of 27600 nM and a GI50 (T-47D breast) of 1420 nM. It also gave a TGI (T-47D breast) of 4300 nM, a GI50 (NCI-H522 lung) of 1620 nM and a TGI (NCI-H522 lung) of 3990 nM. For the same compound, the GI50 (UACC-62 melanoma) was 1700 nM, the TGI (UACC-62 melanoma) was 3580 nM and the GI50 (SNB-19 CNS) was 2340 nM. For the same compound, the TGI (SNB-19 CNS) was 9980 nM, the GI50 (NCI-H226 lung) was 1710 nM and the TGI (NCI-H226 lung) was 3510 nM. For the same compound, the GI50 (RPMI-8226 leukemia) was 479 nM, the TGI (RPMI-8226 leukemia) was 2770 nM and the GI50 (SR leukemia) was 326 nM. It also gave a TGI (SR leukemia) of 2750 nM, a GI50 (MOLT-4 leukemia) of 1910 nM and a TGI (MOLT-4 leukemia) of 8510 nM. The GI50 (ACHN renal) was 1610 nM, the TGI (ACHN renal) was 3670 nM and the GI50 (SK-MEL-5 melanoma) was 1650 nM. For the same compound, the TGI (SK-MEL-5 melanoma) was 3060 nM, the GI50 (HL-60(TB) leukemia) was 1740 nM and the TGI (HL-60(TB) leukemia) was 10800 nM. For the same compound, the GI50 (HCC-2998 colon) was 2010 nM, the TGI (HCC-2998 colon) was 3630 nM and the GI50 (A498 renal) was 1640 nM. The TGI (A498 renal) was 4330 nM, the GI50 (LOX IMVI melanoma) was 1600 nM and the TGI (LOX IMVI melanoma) was 3280 nM. The GI50 (COLO 205 colon) was 1740 nM, the TGI (COLO 205 colon) was 3340 nM and the GI50 (MALME-3M melanoma) was 2050 nM. The TGI (MALME-3M melanoma) was 4710 nM, the GI50 (SW-620 colon) was 2050 nM and the TGI (SW-620 colon) was 6370 nM. It also gave a GI50 (TK-10 renal) of 4840 nM, a TGI (TK-10 renal) of 17500 nM and a GI50 (K-562 leukemia) of 726 nM. The TGI (K-562 leukemia) was 23600 nM, the GI50 (KM12 colon) was 1140 nM and the TGI (KM12 colon) was 2880 nM. For the same compound, the GI50 (UO-31 renal) was 1360 nM, the TGI (UO-31 renal) was 2860 nM and the GI50 (U251 CNS) was 1420 nM. For the same compound, the TGI (U251 CNS) was 2770 nM, the GI50 (SN12C renal) was 1860 nM and the TGI (SN12C renal) was 4520 nM. For the same compound, the GI50 (OVCAR-4 ovarian) was 1400 nM, the TGI (OVCAR-4 ovarian) was 5440 nM and the GI50 (BT-549 breast) was 1380 nM. It also gave a TGI (BT-549 breast) of 2820 nM, a GI50 (MCF7 breast) of 1500 nM and a TGI (MCF7 breast) of 5420 nM. For the same compound, the GI50 (SK-MEL-2 melanoma) was 2850 nM, the TGI (SK-MEL-2 melanoma) was 7530 nM and the GI50 (NCI-H23 lung) was 2480 nM. It also gave a TGI (NCI-H23 lung) of 6790 nM, a GI50 (SF-268 CNS) of 1690 nM and a TGI (SF-268 CNS) of 3930 nM. The GI50 (SF-295 CNS) was 2550 nM, the TGI (SF-295 CNS) was 10900 nM and the GI50 (HS 578T breast) was 4330 nM. For the same compound, the TGI (HS 578T breast) was over 100000 nM, the GI50 (OVCAR-8 ovarian) was 2390 nM and the TGI (OVCAR-8 ovarian) was 9760 nM. The GI50 (HCT-116 colon) was 1100 nM, the TGI (HCT-116 colon) was 2610 nM and the GI50 (SF-539 CNS) was 1300 nM. The TGI (SF-539 CNS) was 2660 nM, the GI50 (SK-MEL-28 melanoma) was 1860 nM and the TGI (SK-MEL-28 melanoma) was 4080 nM. The GI50 (HCT-15 colon) was 1370 nM, the TGI (HCT-15 colon) was 6760 nM and the GI50 (UACC-257 melanoma) was 1870 nM. It also gave a TGI (UACC-257 melanoma) of 4020 nM, a GI50 (PC-3 prostate) of 2210 nM and a TGI (PC-3 prostate) of 10400 nM. It also gave a GI50 (HT29 colon) of 1850 nM, a TGI (HT29 colon) of 4820 nM and a GI50 (A549 NSCLC) of 2080 nM. The TGI (A549 NSCLC) was 7020 nM, the GI50 (MDA-MB-435) was 1660 nM and the TGI (MDA-MB-435) was 3210 nM. The GI50 (786-0 renal) was 2040 nM, the TGI (786-0 renal) was 6490 nM and the GI50 (NCI-H460 lung) was 1800 nM. The TGI (NCI-H460 lung) was 5100 nM, the GI50 (OVCAR-5 ovarian) was 1780 nM and the TGI (OVCAR-5 ovarian) was 3750 nM. The GI50 (HOP-62 NSCLC) was 1770 nM, the TGI (HOP-62 NSCLC) was 3920 nM and the GI50 (RXF 393 renal) was 1350 nM. It also gave a TGI (RXF 393 renal) of 3240 nM, a GI50 (M14 melanoma) of 1830 nM and a TGI (M14 melanoma) of 3860 nM. The GI50 (NCI/ADR-RES ovarian) was 3800 nM, the TGI (NCI/ADR-RES ovarian) was 65800 nM and the GI50 (CCRF-CEM leukemia) was 556 nM. The TGI (CCRF-CEM leukemia) was 4170 nM, the GI50 (IGROV1 ovarian) was 3200 nM and the TGI (IGROV1 ovarian) was 10500 nM. For the same compound, the GI50 (OVCAR-3 ovarian) was 1570 nM and the TGI (OVCAR-3 ovarian) was 3370 nM.
